These results are taken from patent US9561228B2 (Celgene Avilomics Research, Inc., priority 2013, dated 2017).

pEC50, pIC50: −log10 of the molar value.

For experiment [1], the system named is ERK1/ERK2. The experiment can be described thus: Measurement of Erk occupancy with biotinylated covalent probe I-299 (HT-29). The format is cell-based. The following applies: HT-29 cells. The method, then:
Measurement of Erk Occupancy with Biotinylated Covalent Probe
This experiment measured occupancy of the ERK1/ERK2 target by compounds according to the invention. This experiment was conducted using the Mesoscale Discovery test kit (Cat. # N45107B). One day before the assay, cells were split and added at 50,000 cells per well to a flat-bottom 96 well plate in 200 μl of growth medium. The next day, the medium was discarded, 100 μl medium containing test compound was added, and the plate was incubated at 37° C. for 120 minutes. The plate was rinsed once with PBS, and 50 μl lysis buffer with test compound was added. The plate was incubated at 4° C. for 30 min, and 30 μl of lysate was transferred to a plate to capture total and phosphor-Erk. Biotinylated probe 1-299 was diluted in lysis buffer and added to each well to a final concentration of 0.2 μM. The plate was incubated for 2 hr under constant shaking at room temperature. The plate was washed 3 times with MSD wash buffer. To detect the biotinylated probe bonding, tagged streptavidin was added (Mesoscale Discovery, Cat. # R32AD-1) at 1 μg/ml, 25 μl/well, followed by a 60 min incubation under shaking. The plate was washed 3 times, 150 μl MSD Read Buffer (Mesoscale Discovery, Cat. R61TX) was added and the plate was read in a plate reader manufactured by MSD. Percent occupancy by test compound at Erk was calculated by comparing the chemiluminescence readings from treated cells as compared to the chemiluminescence readings in untreated controls (which are defined as 100% probe bonding or 0% test compound occupancy). The amount of covalent probe signal divided by the amount of ERK signal for samples with no test compound treatment represents the maximum probe signal (MPS). In samples treated with test compound prior to covalent probe, the ratio of probe signal to ERK signal (the test probe signal, TPS) was reduced by the degree of target occupancy by the test compound which blocks covalent probe binding. The difference between the MPS and the TPS, divided by the MPS gave the target occupancy by the test compound. This ratio was then expressed as a percent occupancy. Results from this assay are provided in Table A below under the column “Occupancy EC50 (nM) HT-29.”

The test system of experiment [2] is HCT116 cells (colorectal carcinoma). The experiment can be described thus: Inhibition of cancer cell proliferation, HCT116 (CellTiterGlo, 72 hours). The format is cell-based. The settings on record: Homo sapiens, HCT-116. The gist of the method:
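3000 cells per well exposed to 3-fold serial compound dilutions from 5,000 nM (two-fold solution, stock level) for 72 hours at 37° C. CellTiterGlo luminescence converted to cell number via a standard curve; percent inhibition vs untreated wells, GI50 by curve fit.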
For orientation: Cellular ATP, detected with luciferase, serves as a proxy for viable cell number.

Experiment [3] deals with T1, MEK1 activated ERK1 (Homo sapiens, UniProt P27361).
T1 construct: purchased Millipore (Billerica, Mass.) 14-439-K
T1 sequence (P27361 whole entry): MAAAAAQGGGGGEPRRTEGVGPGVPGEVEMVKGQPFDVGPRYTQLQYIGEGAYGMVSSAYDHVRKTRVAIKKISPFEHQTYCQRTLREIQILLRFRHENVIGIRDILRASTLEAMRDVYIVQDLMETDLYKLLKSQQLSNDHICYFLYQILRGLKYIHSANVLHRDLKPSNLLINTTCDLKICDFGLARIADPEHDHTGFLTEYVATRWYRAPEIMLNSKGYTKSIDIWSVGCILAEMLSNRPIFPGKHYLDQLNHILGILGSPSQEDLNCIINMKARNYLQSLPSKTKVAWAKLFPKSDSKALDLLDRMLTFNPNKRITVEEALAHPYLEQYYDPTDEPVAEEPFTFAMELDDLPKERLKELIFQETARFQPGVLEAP
Briefly: Omnia continuous-read kinase assay for potency against MEK1 activated ERK1. Format: biochemical. The following applies: MEK1 activated ERK1, ATP at KM; read-out: ERK1 Omnia WT ATP KM IC50. The gist of the method: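 Apparent IC50 came from initial reaction slopes (RFU vs time) plotted against log inhibitor with a variable-slope fit. Reactions were started with ERK1 (4 nM final) added to 50 μM ATP, roughly at its appKM, and 10 μM Sox-conjugated ST17 peptide in 20 mM Tris pH 7.5, 5 mM MgCl2. Fluorescence was monitored every 71 seconds.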

As usually defined, the pEC50 is the EC50 on a negative log10 scale, so that one unit is a factor of ten. A high value points to a low EC50. As a reminder, the GI50 is the concentration at which growth is held to half of that of the control. Lower therefore signals more potent growth inhibition. In experiment [1], `C=CC(=O)Nc1ccccc1Nc1nc(Nc2cc(C(N)=O)ccc2C)ncc1C(F)(F)F` [Compound I-68, 3-(4-(2-Acrylamidophenylamino)-5-(trifluoromethyl)pyrimidin-2-ylamino)-4-methylbenzamide] gave a pEC50 above 7.00. The compound further had a GI50 in experiment [2] below 100 nM.
The term pIC50 denotes the negative decadic logarithm of the IC50, by convention in mol/L. Take `C=CC(=O)Nc1cc(C)ccc1Nc1nc(Nc2cc(OC)nc(N3CCOCC3)c2)ncc1C(F)(F)F` [Compound I-94, N-(2-((2-((2-Methoxy-6-morpholinopyridin-4-yl)amino)-5-(trifluoromethyl)pyrimidin-4-yl)amino)-5-methylphenyl)acrylamide]: the pIC50 in experiment [3] was 6.30 to 7.00. In experiment [2], this compound displayed a GI50 below 100 nM.
Taken in the same sequence, the figures for `C=CC(=O)Nc1ccccc1Nc1nc(N[C@H]2CCCN(C(C)=O)C2)ncc1Cl` [Compound I-115, (S)—N-(2-((2-((1-acetylpiperidin-3-yl)amino)-5-chloropyrimidin-4-yl)amino)phenyl)acrylamide] were above 7.00 and 101 to 500 nM.
Taken in the same sequence, the figures for `C=CC(=O)Nc1cc(C)ccc1Nc1nc(Nc2cc(C(N)=O)ccn2)ncc1Cl` [Compound I-238, 2-((4-((2-acrylamido-4-methylphenyl)amino)-5-chloropyrimidin-2-yl)amino)isonicotinamide] were 6.30 to 7.00 and above 1000 nM.
Taken in the same sequence, the figures for `C=CC(=O)Nc1cc(OC)ccc1Nc1nc(Nc2cc(Cl)nc(OC)c2)ncc1Cl` [Compound I-245, N-(2-((5-chloro-2-((2-chloro-6-methoxypyridin-4-yl)amino)pyrimidin-4-yl)amino)-5-methoxyphenyl)acrylamide] were 6.30 to 7.00 and 101 to 500 nM.
With `C=CC(=O)Nc1ccccc1Nc1nc(Nc2cc(Cl)nc(OC)c2)ncc1Cl` [Compound I-246, N-(2-((5-chloro-2-((2-chloro-6-methoxypyridin-4-yl)amino)pyrimidin-4-yl)amino)phenyl)acrylamide], in experiment [3], the pIC50 is 6.30 to 7.00. This compound showed a GI50 in experiment [2] of 101 to 500 nM.
On to `C=CC(=O)Nc1ccccc1Nc1nc(Nc2cc(OC)nc(N3CCCCC3)c2)ncc1C(F)(F)F` [Compound I-282, N-(2-((2-((2-Methoxy-6-(piperidin-1-yl)pyridin-4-yl)amino)-5-(trifluoromethyl)pyrimidin-4-yl)amino)phenyl)acrylamide], for which the pIC50 in experiment [3] is 6.30 to 7.00. The compound further returned a concentration for 50% growth inhibition (GI50) in experiment [2] below 100 nM.
Taken in the same sequence, the figures for `C=CC(=O)Nc1ccccc1Nc1nc(Nc2cc(N[C@H]3CC[C@@H](O)CC3)nc(OC)c2)ncc1C(F)(F)F` [Compound I-292] were above 7.00 and below 100 nM.
As to `C=CC(=O)Nc1ccccc1Nc1nc(Nc2ccnnc2)ncc1C(F)(F)F` [Compound I-293, N-(2-((2-(Pyridazin-4-ylamino)-5-(trifluoromethyl)pyrimidin-4-yl)amino)phenyl)acrylamide], in experiment [3], the negative-log IC50 (pIC50) is 6.30 to 7.00. The same compound registered a GI50 in experiment [2] of 101 to 500 nM.
Taken in the same sequence, the figures for `C=CC(=O)Nc1cc(C(F)(F)F)ccc1Nc1nc(Nc2cc(OC)ncc2C)ncc1C(F)(F)F` [Compound I-323, N-(2-((2-((2-methoxy-5-methylpyridin-4-yl)amino)-5-(trifluoromethyl)pyrimidin-4-yl)amino)-5-(trifluoromethyl)phenyl)acrylamide] were 6.30 to 7.00 and 501 to 999 nM.
Taken in the same sequence, the figures for `C=CC(=O)Nc1cc(C)ccc1Nc1nc(Nc2cc(OC)nc(N3CCN(C)CC3)c2)ncc1C(F)(F)F` [Compound I-325, N-(2-((2-((2-methoxy-6-(4-methylpiperazin-1-yl)pyridin-4-yl)amino)-5-(trifluoromethyl)pyrimidin-4-yl)amino)-5-methylphenyl)acrylamide] were 6.30 to 7.00 and below 100 nM.
Taken in the same sequence, the figures for `C=CC(=O)Nc1cc(C)ccc1Nc1nc(Nc2cc(N[C@H]3CC[C@@H](O)CC3)nc(OC)c2)ncc1C(F)(F)F` [Compound I-326, N-(2-((2-((2-((cis-4-hydroxycyclohexyl)amino)-6-methoxypyridin-4-yl)amino)-5-(trifluoromethyl)pyrimidin-4-yl)amino)-5-methylphenyl)acrylamide] were 6.30 to 7.00 and below 100 nM.
Take `C=CS(=O)(=O)Nc1cc(C)ccc1Nc1nc(Nc2cc(OC)ncc2C)ncc1C(F)(F)F` [Compound I-333, N-(2-((2-((2-methoxy-5-methylpyridin-4-yl)amino)-5-(trifluoromethyl)pyrimidin-4-yl)amino)-5-methylphenyl)ethenesulfonamide]: the pIC50 in experiment [3] was 6.30 to 7.00. In experiment [2], the GI50 is above 1000 nM.
Taken in the same sequence, the figures for `C=CC(=O)Nc1cc(C)ccc1Nc1nc(Nc2cc(OC)nc(N(C)CCOC)c2)ncc1C(F)(F)F` [Compound I-336, N-(2-((2-((2-methoxy-6-((2-methoxyethyl)(methyl)amino)pyridin-4-yl)amino)-5-(trifluoromethyl)pyrimidin-4-yl)amino)-5-methylphenyl)acrylamide] were 6.00 to 6.30 and 101 to 500 nM.
`C=CC(=O)Nc1cc(C)ccc1Nc1nc(Nc2cc(NC3CC3)nc(OC)c2)ncc1C(F)(F)F` [Compound I-337, N-(2-((2-((2-(cyclopropylamino)-6-methoxypyridin-4-yl)amino)-5-(trifluoromethyl)pyrimidin-4-yl)amino)-5-methylphenyl)acrylamide]: in experiment [3], the pIC50 was 6.00 to 6.30. Moreover, the GI50 in experiment [2] is below 100 nM.
Consider `C=CC(=O)Nc1ccccc1Nc1nc(Nc2cc(OC)cc(OC)c2)ncc1C(F)(F)F` [Compound I-338, N-(2-((2-((3,5-dimethoxyphenyl)amino)-5-(trifluoromethyl)pyrimidin-4-yl)amino)phenyl)acrylamide], for which the pIC50 in experiment [3] is 6.30 to 7.00. The compound also showed a GI50 in experiment [2] below 100 nM.
As to `C=CC(=O)Nc1ccccc1Nc1nc(Nc2cc(OC)ccc2C)ncc1C(F)(F)F` [Compound I-340, N-(2-((2-((5-methoxy-2-methylphenyl)amino)-5-(trifluoromethyl)pyrimidin-4-yl)amino)phenyl)acrylamide], the pIC50 in experiment [3] is 6.30 to 7.00. Also, the GI50 in experiment [2] was in the range of 501 to 999 nM.
Consider `C=CC(=O)Nc1cc(C)ccc1Nc1nc(Nc2cc(OC)nc(N(C)C3CC3)c2)ncc1C(F)(F)F` [Compound I-342, N-(2-((2-((2-(cyclopropyl(methyl)amino)-6-methoxypyridin-4-yl)amino)-5-(trifluoromethyl)pyrimidin-4-yl)amino)-5-methylphenyl)acrylamide], for which the pIC50 in experiment [3] is 6.00 to 6.30. Further, in experiment [2], the GI50 was 101 to 500 nM.
